The values that follow come from patent publication US20210386777A1, “GAS MIXTURES CONTAINING LOW CONC[…] XENON AND ARGON PROVIDE NEURO[…] INHIBITING THE CATALYTIC ACTIVITY OF TH[…]” ([…], priority 2017, published 2021).

Test [1] addresses elastase (Sus scrofa, UniProt P00772). The note with it: cited from earlier work; for binding to the active site of elastase: serine protease used as a model of tPA.
The target of test [2] is T1, recombinant form of human tPA (Homo sapiens, UniProt P00750).
T1 construct: purchased Boehringer Ingelheim Actilyse
The experiment in a line: In vitro tPA catalytic activity assay (initial rate method, chromogenic substrate). It counts as biochemical. Particulars: for catalytic efficiency of tPA: single gas alone at 25 vol %. As to the method: […] The recombinant form of human tPA (Actilyse®; Boehringer Ingelheim, Ingelheim am Rhein, Germany) and its specific chromogenic substrate methylsulfonyl-D-phenyl-glycil-arginine-7-amino-4-methylcoumarin acetate (Spectrozyme® XF, product 444; American Diagnostica, Stamford, CT) were diluted separately in 1 ml distilled water in 1.5-ml sterile tubes. […] The catalytic efficiency of tPA was assessed by the initial rate method by incubating 50 μl tPA with 50 μl substrate in a spectrofluorometer microplate reader set at 37° C.
(§1) Xenon, argon, nitrogen, and oxygen were purchased from Air Liquide Sante (Paris, France). Medical air composed of 75 vol % nitrogen and 25 vol % oxygen, and xenon and argon mixtures containing 37.5 vol % xenon and 37.5 vol % argon (Xe—Ar-37.5), 25 vol % xenon and 25 vol % argon (Xe—Ar-25) or 15 vol % xenon and 15 vol % argon (Xe—Ar-15)—with 25 vol % oxygen and the remainder being nitrogen when needed—were obtained using computer-driven gas mass flowmeters, and an oxygen analyzer to check that the gas mixtures used were not hypoxic.

Test [3] has as its system rats injected with intracerebral NMDA. The experiment in a line: NMDA-induced neuronal death in vivo (brain damage after intracerebral injection of NMDA). Also noted: species or system rat. As to the method:
The effects of gas mixtures containing xenon and argon on the […] were assessed as described previously. On the day of surgery, rats were anesthetized with 1.5% halothane in oxygen alone in an anesthesia box and mounted on a stereotactic apparatus with the incisor bar set at 3.9 mm below the horizontal zero. A burr hole was drilled and a micropipette (less than […] at the tip) was lowered into the right striatum (anterior, 0.6 mm; lateral, 3.0 mm; ventral, 5.8 mm, from bregma) to allow injection of 70 nmol of NMDA in 1 μl of phosphate buffered solution (pH 7.4) over a 2-min period. After an additional 5-min period, the micropipette was removed, and the wounds were then sutured. During surgery, body temperature was kept at 37 ±0.5° C. with a feedback-controlled thermostatic heating pad (Harvard Apparatus Limited, Edenbridge, UK). The animals woke up in their home cage after about 10 min, where they were given free access to food and water. Sixty minutes after NMDA administration, rats were treated with medical air or gas mixtures containing xenon and argon (see gas pharmacological section). The number of rats per group was n=7-11.
as §1

In test [4] the target is tPA and rtPA (Homo sapiens, UniProt P00750). Particulars: cited from earlier work.
The subject of test [5] is brain slices exposed to OGD. The experiment in a line: Lactate dehydrogenase (LDH) release induced by oxygen-glucose deprivation (OGD) in brain slices. Type of test: cell-based, rat. As to the method: Rats were killed by decapitation under halothane anesthesia. The brains were removed and placed in ice-cold freshly prepared artificial cerebrospinal fluid (aCSF). Coronal brain slices (400 μm thickness) including the striatum (anteriority: from +1.2 to +2 mm from bregma) were cut using a tissue chopper (Mickie Laboratory Engineering Co., Gomshall, Surrey, UK).
The effects of gas mixtures containing xenon and argon on the release of lactate dehydrogenase (LDH) induced by OGD were assessed as described previously. Before being used, brain slices were transferred into individual vials with 1.3 ml of freshly prepared oxygenated aCSF containing 120 mM NaCl, 2 mM KCl, 2 mM CaCl2, 26 mM NaHCO3, 1.19 mM MgSO4, 1.18 mM KH2PO4, 11 mM d-glucose, and 30 mM HEPES and allowed to recover at room temperature for 45 min. Then, brain slices were placed at 36±0.5° C. into individual vials containing 1.3 ml of freshly prepared aCSF, saturated, and continuously bubbled with 100% oxygen (25 ml/min per vial). After a 30-min period, the incubation aCSF solution was renewed with oxygenated aCSF maintained at 36° C., and the slices were then incubated for 1 h to allow recording of basal levels of LDH. Whereas control slices were incubated for an additional 20-min period in the same conditions, those corresponding to the ischemic group were incubated in a glucose-free solution, saturated, and continuously bubbled with 100% nitrogen (OGD slices). After this 20-min period of OGD, to mimic reperfusion and treatment, the medium was replaced in all groups with freshly prepared aCSF solution, saturated and continuously bubbled with either medical air or gas mixtures containing xenon and argon in volume proportions as described below (see gas pharmacology section; n=20-36).
Xenon, argon, nitrogen, and oxygen were purchased from Air Liquide Sante (Paris, France). […]

For test [6] the following is noted: cited from earlier work.
The subject of test [7] is rat model of thromboembolic stroke. The note with it: intraischemic administration; cited from earlier work.

Sequence of elastase (P00772 27-266): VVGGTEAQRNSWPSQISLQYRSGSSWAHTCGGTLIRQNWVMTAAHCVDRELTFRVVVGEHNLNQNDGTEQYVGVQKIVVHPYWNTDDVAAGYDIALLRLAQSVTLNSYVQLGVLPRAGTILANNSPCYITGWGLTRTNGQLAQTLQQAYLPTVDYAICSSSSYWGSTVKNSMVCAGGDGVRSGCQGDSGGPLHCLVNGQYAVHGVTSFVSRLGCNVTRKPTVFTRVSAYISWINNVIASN
T1 sequence (P00750 36-562): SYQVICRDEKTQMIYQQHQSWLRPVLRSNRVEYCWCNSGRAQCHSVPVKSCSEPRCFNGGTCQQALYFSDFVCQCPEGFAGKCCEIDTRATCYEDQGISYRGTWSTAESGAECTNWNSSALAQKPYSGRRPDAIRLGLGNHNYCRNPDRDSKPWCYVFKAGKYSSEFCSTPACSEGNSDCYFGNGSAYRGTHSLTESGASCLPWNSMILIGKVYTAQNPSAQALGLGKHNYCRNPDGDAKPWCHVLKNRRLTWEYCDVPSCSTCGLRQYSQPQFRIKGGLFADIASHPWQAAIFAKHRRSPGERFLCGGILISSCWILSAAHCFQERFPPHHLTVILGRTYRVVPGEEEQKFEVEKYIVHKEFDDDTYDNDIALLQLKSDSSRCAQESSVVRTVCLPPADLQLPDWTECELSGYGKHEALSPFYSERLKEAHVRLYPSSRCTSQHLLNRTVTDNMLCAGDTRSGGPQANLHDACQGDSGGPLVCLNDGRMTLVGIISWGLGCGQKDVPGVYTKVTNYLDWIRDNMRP
Sequence of tPA and rtPA (P00750 36-562): as above

On to `[Ar]` [argon], for which, in test [1], the “affinity for elastase relative to xenon” value is “lower affinity than xenon”. Moreover, the “binding to the active site of elastase” value in test [1] was “bind to the active site of elastase”. Besides, in test [2] (argon alone, concentration not given), the tPA-induced catalytic activity entry is listed as “has no effect”. Besides, in test [2], the “catalytic efficiency of tPA” value was “decreased it significantly”. Moreover, the NMDA-induced brain damage entry is recorded as “also had no effect by itself on NMDA-induced brain damage” in test [3] (single gas alone at 15 vol %) and “had no effect by itself on NMDA-induced brain damage” in test [3] (single gas alone at 25 vol %). In addition, the “inhibiting action on the thrombolytic properties of tPA and rtPA” value in test [4] (neuroprotective concentrations of 50 vol % and above) is recorded as “shows no inhibiting action”. In addition, the entries for the “OGD-induced LDH release” value in test [5] (single gas alone at 15 vol %) and in test [5] (single gas alone at 25 vol %) were “also had no effect by itself on OGD-induced LDH release” and “had no effect by itself on OGD-induced LDH release”, respectively.

Turning to `[Xe]` [xenon], in test [1], the “binding to the active site of elastase” value was “bind to the active site of elastase”. For the same compound, the “catalytic efficiency of tPA” value in test [2] is on record as “had no effect on the catalytic efficiency of tPA”. Moreover, the NMDA-induced brain damage entry in test [3] (single gas alone at 15 vol %) is recorded as “had no effect by itself on NMDA-induced brain damage”. The “inhibition of tPA and rtPA” value in test [4] (xenon alone) was “potent inhibitor of tPA and rtPA”. For the same compound, the neuroprotection entry in test [6] (subanesthetic concentrations of 37.5 vol % or 50 vol %) was “provided neuroprotection”. The “possible therapeutic window of neuroprotection” value in test [6] (xenon alone) was “about 8 h”. Further, the “tPA-induced thrombolysis and subsequent reduction of ischemic brain damage” value in test [7] was “dose-dependently inhibits”. For the same compound, the “OGD-induced LDH release” value in test [5] (single gas alone at 15 vol %) was “had no effect by itself on OGD-induced LDH release”.
